The record followed here is PubChem BioAssay AID248 (DTP/NCI, 2004).

In the assay the test system is L1210 leukemia ip in BDF1 mice, survival T/C. Put plainly: NCI In Vivo Anticancer Drug Screen. Data for tumor model L1210 Leukemia (intraperitoneal) in B6D2F1 (BDF1) mice. As to conditions: endpoint: mean survival time, higher = longer survival. In outline:
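Antitumor effect is assessed in tumor-bearing animals. Survival in the compound arm is compared with a vehicle-dosed control arm and expressed as their quotient.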

[1] abbreviates: dose: 50.0 mg/kg/injection, schedule: Q01DX009 (ip), vehicle: Klucel (hydroxypropylcellulose) (HPC).
[2] abbreviates: dose: 100.0 mg/kg/injection, schedule: Q01DX009 (ip), vehicle: Klucel (hydroxypropylcellulose) (HPC).
[3] abbreviates: dose: 200.0 mg/kg/injection, schedule: Q01DX009 (ip), vehicle: Klucel (hydroxypropylcellulose) (HPC).
Setting [4] is: dose: 100.0 mg/kg/injection, schedule: Q01DX001 (ip), vehicle: saline.
The mark [5] stands for this setting: dose: 100.0 mg/kg/injection, schedule: Q04DX003 (ip), vehicle: Klucel (hydroxypropylcellulose) (HPC).
Setting [6] is: dose: 200.0 mg/kg/injection, schedule: Q01DX001 (ip), vehicle: saline.
The mark [7] stands for this setting: dose: 200.0 mg/kg/injection, schedule: Q04DX003 (ip), vehicle: Klucel (hydroxypropylcellulose) (HPC).
Where [8] appears, read: dose: 400.0 mg/kg/injection, schedule: Q01DX001 (ip), vehicle: saline.
Setting [9] is: dose: 400.0 mg/kg/injection, schedule: Q01DX009 (ip), vehicle: Klucel (hydroxypropylcellulose) (HPC).
[10] abbreviates: dose: 100.0 mg/kg/injection, schedule: Q01DX009 (ip), vehicle: saline.
[11] abbreviates: dose: 200.0 mg/kg/injection, schedule: Q01DX009 (ip), vehicle: saline.
Setting [12] is: dose: 100.0 mg/kg/injection, schedule: Q01DX001 (ip), vehicle: carboxymethylcellulose (CMC).
[13] abbreviates: dose: 200.0 mg/kg/injection, schedule: Q01DX001 (ip), vehicle: carboxymethylcellulose (CMC).

Toxic doses and inconclusive results are not listed.

Regarding `CC(N)C(=O)Nc1ccccc1` (stereo not given), the T/C is 94 % of control (dose: 100.0 mg/kg/injection, schedule: Q01DX009 (ip), vehicle: water); 97 % of control (dose: 100.0 mg/kg/injection, schedule: Q04DX003 (ip), vehicle: water); 100 % of control (dose: 200.0 mg/kg/injection, schedule: Q01DX009 (ip), vehicle: water); 103 % of control (dose: 200.0 mg/kg/injection, schedule: Q04DX003 (ip), vehicle: water); 100 % of control (dose: 400.0 mg/kg/injection, schedule: Q01DX009 (ip), vehicle: water); 97 % of control (dose: 400.0 mg/kg/injection, schedule: Q04DX003 (ip), vehicle: water).

`O=[N+]([O-])c1ccc(C2CCCCC2)cc1`: the T/C is 109 % of control (dose: 25.0 mg/kg/injection, schedule: Q04DX002 (ip), vehicle: Klucel (hydroxypropylcellulose) (HPC)); 109 % of control (dose: 50.0 mg/kg/injection, schedule: Q04DX002 (ip), vehicle: Klucel (hydroxypropylcellulose) (HPC)); 102 % of control (dose: 100.0 mg/kg/injection, schedule: Q04DX002 (ip), vehicle: Klucel (hydroxypropylcellulose) (HPC)).

As for `CCN(CC)CCN(C(=S)Nc1ccccc1)c1ccccc1`, the T/C is 103 % of control (dose: 25.0 mg/kg/injection, schedule: Q01DX009 (ip), vehicle: Klucel (hydroxypropylcellulose) (HPC)); 102 % of control under setting [1]; 96 % of control under setting [2].

In the case of `O=NN(CCCl)C(=O)Nc1cccc2cccnc12`, the T/C reads like this: (dose: 0.62 mg/kg/injection, schedule: Q01DX001 (ip), vehicle: carboxymethylcellulose (CMC)) 112 % of control; (dose: 1.25 mg/kg/injection, schedule: Q01DX001 (ip), vehicle: carboxymethylcellulose (CMC)) 117 % of control; (dose: 2.5 mg/kg/injection, schedule: Q01DX001 (ip), vehicle: carboxymethylcellulose (CMC)) 117 % of control.

Regarding `O=C(Nc1cccc(C(=O)O)c1)Nc1ccccc1F`, the T/C was 93 % of control under setting [1], 107 % of control under setting [2] and 93 % of control under setting [3].

Turning to `O=C(O)C1C2CC(C(Br)C2Br)C1C(=O)O` (stereo not given), the T/C under setting [4] is 98 % of control; the T/C under setting [2] was 95 % of control; the T/C (dose: 100.0 mg/kg/injection, schedule: Q01DX009 (ip), vehicle: acetone) was 98 % of control; the T/C under setting [5] is 100 % of control; the T/C (dose: 100.0 mg/kg/injection, schedule: Q04DX003 (ip), vehicle: saline) was 94 % of control; the T/C under setting [6] was 95 % of control. Moreover, the T/C by setting is: under setting [3], 97 % of control; (dose: 200.0 mg/kg/injection, schedule: Q01DX009 (ip), vehicle: acetone) 93 % of control; under setting [7], 103 % of control; (dose: 200.0 mg/kg/injection, schedule: Q04DX003 (ip), vehicle: saline) 94 % of control; under setting [8], 96 % of control; under setting [9], 98 % of control. The T/C was 104 % of control (dose: 400.0 mg/kg/injection, schedule: Q01DX009 (ip), vehicle: acetone); 105 % of control (dose: 400.0 mg/kg/injection, schedule: Q04DX003 (ip), vehicle: Klucel (hydroxypropylcellulose) (HPC)); 91 % of control (dose: 400.0 mg/kg/injection, schedule: Q04DX003 (ip), vehicle: saline).

With `CCC(C)C(C=NCC(CCN(C)C)(c1ccc2ccccc2c1)C(C)CC)(CCN(C)C)c1ccc2ccccc2c1` (stereo not given), the T/C by setting is: (dose: 12.5 mg/kg/injection, schedule: Q04DX002 (ip), vehicle: saline + alcohol) 92 % of control; (dose: 12.5 mg/kg/injection, schedule: Q04DX002 (ip), vehicle: saline with Tween-80) 92 % of control; (dose: 25.0 mg/kg/injection, schedule: Q04DX002 (ip), vehicle: saline + alcohol) 92 % of control.

Regarding `Cc1cc(C)c2c(C#N)cn(-c3ccc(Cl)cc3)c2n1`, the T/C is 87 % of control under setting [4], 97 % of control under setting [6] and 91 % of control under setting [8].

Take `COCCOCCOCCOCCOCCN`: the T/C under setting [10] is 96 % of control; the T/C under setting [11] was 93 % of control; the T/C (dose: 400.0 mg/kg/injection, schedule: Q01DX009 (ip), vehicle: saline) is 98 % of control.

Consider `CCOC(=O)CCc1c(C)c2cc(C(C)=O)c(O)cc2oc1=O`, for which the T/C is, setting by setting: under setting [12], 89 % of control; under setting [13], 94 % of control; (dose: 400.0 mg/kg/injection, schedule: Q01DX001 (ip), vehicle: carboxymethylcellulose (CMC)) 103 % of control.

With `CC(=O)C1=C(O)C2C3c4c[nH]c5cccc(c45)CC3C(C)(C)N2C1=O` (stereo not given), the T/C is, setting by setting: (dose: 0.25 mg/kg/injection, schedule: Q01DX001 (ip), vehicle: saline) 101 % of control; (dose: 0.5 mg/kg/injection, schedule: Q01DX001 (ip), vehicle: saline) 103 % of control; (dose: 1.0 mg/kg/injection, schedule: Q01DX001 (ip), vehicle: saline) 101 % of control; (dose: 2.0 mg/kg/injection, schedule: Q01DX001 (ip), vehicle: saline) 105 % of control.

As for `O=C(COc1cccc(Cl)c1)Nc1ccccc1S(=O)(=O)F`, the T/C is, setting by setting: (dose: 100.0 mg/kg/injection, schedule: Q04DX003 (ip), vehicle: other) 89 % of control; (dose: 200.0 mg/kg/injection, schedule: Q04DX003 (ip), vehicle: other) 87 % of control; (dose: 400.0 mg/kg/injection, schedule: Q04DX003 (ip), vehicle: other) 98 % of control.

Take `COc1cc(N(CCCl)CCCl)c(OC)cc1C=Nc1cccc(Br)c1`: the T/C is, setting by setting: (dose: 26.6 mg/kg/injection, schedule: Q01DX009 (ip), vehicle: carboxymethylcellulose (CMC)) 105 % of control; (dose: 40.0 mg/kg/injection, schedule: Q01DX009 (ip), vehicle: carboxymethylcellulose (CMC)) 96 % of control; under setting [12], 120 % of control; under setting [13], 107 % of control; (dose: 266.0 mg/kg/injection, schedule: Q01DX001 (ip), vehicle: carboxymethylcellulose (CMC)) 157 % of control.

Turning to `CC(=O)Nc1ccc(NC(=O)NCCCl)cc1`, the T/C runs as follows: under setting [1], 96 % of control; under setting [2], 99 % of control; under setting [5], 103 % of control; under setting [3], 89 % of control; under setting [7], 100 % of control.

Regarding `O=C1C=C(Nc2ccc([N+](=O)[O-])cc2)C(=O)c2ccccc21`, the T/C is 87 % of control (dose: 75.0 mg/kg/injection, schedule: Q01DX001 (ip), vehicle: carboxymethylcellulose (CMC)) and 89 % of control (dose: 300.0 mg/kg/injection, schedule: Q01DX001 (ip), vehicle: carboxymethylcellulose (CMC)).

Turning to `CC[N+](C)(CC)CC[N+]1(C)CC2CC=CCC2C1` (stereo not given), the T/C by setting is: (dose: 222.0 mg/kg/injection, schedule: Q01DX Z (ip), vehicle: saline) 94 % of control; (dose: 333.0 mg/kg/injection, schedule: Q01DX Z (ip), vehicle: saline) 97 % of control; (dose: 500.0 mg/kg/injection, schedule: Q01DX Z (ip), vehicle: saline) 94 % of control.

For `O=C(Oc1ccc(S(=O)(=O)F)cc1Cl)c1ccccc1Cl`, the T/C runs as follows: (dose: 100.0 mg/kg/injection, schedule: Q04DX003 (ip), vehicle: carboxymethylcellulose (CMC)) 98 % of control; (dose: 200.0 mg/kg/injection, schedule: Q04DX003 (ip), vehicle: carboxymethylcellulose (CMC)) 95 % of control; (dose: 400.0 mg/kg/injection, schedule: Q04DX003 (ip), vehicle: carboxymethylcellulose (CMC)) 104 % of control.

For the compound `CN(CO)c1nc(N(C)CO)nc(N(C)CO)n1`, the T/C (dose: 6.25 mg/kg/injection, schedule: Q01DX009 (ip), vehicle: saline) is 109 % of control; the T/C (dose: 12.5 mg/kg/injection, schedule: Q01DX009 (ip), vehicle: saline) is 113 % of control; the T/C (dose: 25.0 mg/kg/injection, schedule: Q01DX009 (ip), vehicle: saline) was 120 % of control; the T/C under setting [10] was 166 % of control; the T/C under setting [11] was 86 % of control.

As to `C[n+]1ccccc1/C=C/c1cccc(O)c1`, the T/C is, setting by setting: (dose: 9.38 mg/kg/injection, schedule: Q01DX001 (ip), vehicle: other) 103 % of control; (dose: 18.75 mg/kg/injection, schedule: Q01DX001 (ip), vehicle: other) 100 % of control.

Turning to `COC(=O)/C=C/c1ccc(Cl)cc1`, the T/C reads like this: under setting [2], 98 % of control; under setting [3], 96 % of control; under setting [9], 96 % of control.
